Our source for the EC50 values is BindingDB's records for doi:10.1021/jm020211+ (National Institute of Diabetes and Digestive and Kidney …, 2002).

pEC50: −log10 of the molar value.

The experiment has as its target T1, Adenosine receptor A3 (Homo sapiens, UniProt P0DMS8).
T1 sequence (P0DMS8 whole entry): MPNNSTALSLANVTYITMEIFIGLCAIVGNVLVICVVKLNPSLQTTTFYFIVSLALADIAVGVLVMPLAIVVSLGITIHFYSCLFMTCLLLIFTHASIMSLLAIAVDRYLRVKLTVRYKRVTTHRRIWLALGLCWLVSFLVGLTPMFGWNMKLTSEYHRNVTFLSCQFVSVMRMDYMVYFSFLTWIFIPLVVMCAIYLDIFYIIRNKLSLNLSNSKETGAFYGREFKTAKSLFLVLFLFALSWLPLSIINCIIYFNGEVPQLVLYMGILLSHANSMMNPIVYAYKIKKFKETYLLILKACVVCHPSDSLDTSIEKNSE
The experiment in a line: Effect on forskolin-stimulated cyclic AMP production in intact chinese hamster ovary (CHO) cell expressing the human Adenosine A3 receptor.

`Nc1nc(Cl)nc2c1ncn2C1C(O)C(O)C2(CO)CC12` (stereo unspecified) [4-(6-Amino-2-chloro-purin-9-yl)-1-hydroxymethyl-bicyclo[3.1.0]hexane-2,3-diol] gave a pEC50 of 6.10.

As usually defined, the pEC50 is the EC50 on a negative log10 scale, so that one unit is a factor of ten. Low values mean a high EC50, high ones a low EC50.
